The values below come from patent US10076519B2 (CYTOKINETICS, INC., priority 2010, dated 2018).

SMILES strings stand for the structures.

The first test concerns rabbit skeletal myofibrils (fast skeletal myofibrils). The test can be described thus: Activation of fast skeletal myofibrils (PUMA assay, PK/LDH-coupled ATPase at pCa25). In kind it is biochemical. The conditions noted are these: AC1.4 determined according to the procedure of Example 39; reported as class symbols. As to the method:
Preparation of Fast Skeletal Myofibrils.
Rabbit skeletal myofibrils were prepared based upon the method of Herrmann et al. (Biochem. 32(28):7255-7263(1993). Myofibrils were prepared from rabbit psoas muscle purchased from Pel-Freez Biologicals (Arkansas) within 2 days of ordering, stored on ice. Minced muscle was homogenized in 10 volumes of ice-cold “standard” buffer (50 mM Tris, pH 7.4, 0.1M potassium acetate, 5 mM KCl, 2 mM DTT, 0.2 mM PMSF, 10 μM leupeptin, 5 μM pepstatin, and 0.5 mM sodium azide) containing 5 mM EDTA and 0.5% Triton X-100 using an Omni-Macro homogenizer. Myofibrils were recovered by low speed centrifugation (3000 rpm for 10 minutes) and washed 2 times in the Triton X-100 containing buffer to ensure removal of cellular membrane. Following the Triton washes, myofibrils were washed 3 times in “standard” buffer containing 2 mM magnesium acetate. A final wash in assay buffer (12 mM PIPES, pH 6.8, 60 mM KCl, 1 mM DTT) was performed and brought to 10% sucrose for flash freezing in liquid nitrogen and storage at −80° C.
Activation of Fast Skeletal Myofibrils.
Fast fiber activators were identified by measuring the enzymatic activity of muscle myofibril preparations using the proprietary PUMA™ (see, e.g., U.S. Pat. Nos. 6,410,254, 6,743,599, 7,202,051, and 7,378,254) assay system. Myofibril preparations consisted of rabbit skeletal muscle (approximately 90% fast fibers) that had been mechanically homogenized and washed with a detergent (triton X-100) to remove cellular membranes. This preparation retained all of the sarcomeric components in a native conformation and the enzymatic activity was still regulated by calcium. Compounds were tested using a myofibril suspension and a level of calcium sufficient to increase enzymatic activity of the myofibrils to 25% of their maximal rate (termed pCa25). Enzymatic activity was tracked via a pyruvate kinase and lactate dehydrogenase-coupled enzyme system. This assay regenerates myosin-produced ADP into ATP by oxidizing NADH, producing an absorbance change at 340 nm. The buffering system was 12 mM Pipes, 2 mM MgCl2, 1 mM DTT at pH 6.8 (PM12 buffer).
Using procedures similar to those described herein, utilizing reagents and intermediates commercially available (e.g., Sigma-Aldrich, St. Louis, Mo.) or readily synthesized by one of skill in the art, the compounds in Table 2 were synthesized, characterized and tested. AC1.4 values were determined according to the procedure described in Example 39, and the reported median AC1.4 values are as follows: A=<1 uM; B=1-10 uM; C=10-20 uM; D=>20 uM.
As for `N#Cc1ccnc(C2(CNc3ccc(-c4cc(C(N)=O)ccc4F)nn3)CCC2)c1`, the “Mean AC1.4” value is “B (B=1-10 uM)”.
Still for that read-out and setting: as for `NC(=O)c1cccc(-c2ccc(NCCc3ccccc3)nn2)c1` [3-{6-[(2-phenylethyl)amino]pyridazin-3-yl}benzamide], the entry is “D (D=>20 uM)”.
As to `CC(C)(CNc1ccc(C(=O)N2CCNC(=O)C2)nn1)c1ccc(F)cc1` [4-[(6-{[2-(4-fluorophenyl)-2-methylpropyl]amino}pyridazin-3-yl)carbonyl]piperazin-2-one], the “Mean AC1.4” value is “D (D=>20 uM)”.
Take `CC1(C)CC1(CNc1ccc(-c2ccc3[nH]nc(N)c3c2)nn1)c1ccccc1` (stereo not drawn): the “Mean AC1.4” value is recorded as “A (A=<1 uM)”.
Take `CC(C)(CNc1ccc(-c2ccc(C(N)=O)cn2)nn1)c1ccc(F)cc1` [6-(6-{[2-(4-fluorophenyl)-2-methylpropyl]amino}pyridazin-3-yl)pyridine-3-carboxamide]: the “Mean AC1.4” value is recorded as “B (B=1-10 uM)”.
Same read-out and setting: as for `CC(C)(CNc1ccc(-c2cccc(C(=O)NCCN)c2)nn1)c1ccc(F)cc1` [N-(2-aminoethyl)[3-(6-{[2-(4-fluorophenyl)-2-methylpropyl]amino}pyridazin-3-yl)phenyl]carboxamide], the entry is “A (A=<1 uM)”; as for `N=C(N)c1cccc(-c2ccc(NCC3(c4ncccc4F)CCC3)nn2)c1`, “D (D=>20 uM)”.
Turning to `Nc1n[nH]c2ccc(-c3ccc(NCC4(c5ccc(F)cc5)CCCC4)nn3)cc12` [[6-(3-amino(1H-indazol-5-yl))pyridazin-3-yl]{[(4-fluorophenyl)cyclopentyl]meth-yl}amine], the “Mean AC1.4” value was “A (A=<1 uM)”.
In the case of `COc1ncc(-c2ccc(NCC(C)(C)c3ccc(F)cc3)nn2)cn1` [[2-(4-fluorophenyl)-2-methylpropyl][6-(2-methoxypyrimidin-5-yl)pyridazin-3-yl]amine], the “Mean AC1.4” value is “C (C=10-20 uM)”.
On to `NC(=O)c1ccc(F)c(-c2ccc(NCC3(c4ccccn4)CCC3)nn2)c1`, for which the “Mean AC1.4” value is “A (A=<1 uM)”.
As to `CCNc1n[nH]c2ccc(-c3ccc(NCC(C)(C)c4ccc(F)cc4)nn3)cc12` [{6-[3-(ethylamino)(1H-indazol-5-yl)]pyridazin-3-yl}[2-(4-fluorophenyl)-2-methylpropyl]amine], the “Mean AC1.4” value was “A (A=<1 uM)”.
`COc1cccc(-c2ccc(NCC(C)(C)c3ccc(F)cc3)nn2)n1` [[2-(4-fluorophenyl)-2-methylpropyl][6-(6-methoxy(2-pyridyl))pyridazin-3-yl]amine]: the “Mean AC1.4” value is recorded as “A (A=<1 uM)”.
Consider `CC(C)(CNc1ccc(-c2cccc(C(=O)NCCCN)c2)nn1)c1ccc(F)cc1` [N-(3-aminopropyl)[3-(6-{[2-(4-fluorophenyl)-2-methylpropyl]amino}pyridazin-3-yl)phenyl]carboxamide], for which the “Mean AC1.4” value was “B (B=1-10 uM)”.

The test is the same for the next values; noted with them: median AC1.4 class, procedure of Example 39.
`Nc1ncc(-c2ccc(NCC3(c4ncccc4F)CCC3)nn2)cc1F` [[6-(6-amino-5-fluoro(3-pyridyl))pyridazin-3-yl]{[(3-fluoro(2-pyridyl))cyclobutyl]methyl}amine]: the “Mean AC1.4” value is “A (A=<1 uM)”.
Still for that read-out and setting: as for `Fc1ccc(C2(Nc3ccc(-c4ccc5[nH]cnc5c4)nn3)CCC2)cc1` [(6-benzimidazol-5-ylpyridazin-3-yl)[(4-fluorophenyl)cyclobutyl]amine], the entry is “A (A=<1 uM)”.
Same read-out and setting: as for `NC(=O)c1cncc(-c2ccc(NCC3(c4ncccc4F)CCC3)nn2)n1` [6-[6-({[(3-fluoro-2-pyridyl)cyclobutyl]methyl}ami-no)pyridazin-3-yl]pyrazine-2-carboxamide], the entry is “C (C=10-20 uM)”.
On the same count and under the same terms, as for `O=C(O)c1csc2nc(-c3ccc(NCC4(c5ncccc5F)CCC4)nn3)cn12` [6-[6-({[(3-fluoro-2-pyridyl)cyclobutyl]methyl}ami-no)pyridazin-3-yl]imidazo[2,1-b]1,3-thiazoline-3-carboxylic acid], the entry is “A (A=<1 uM)”; as for `NC(=O)c1cccc(-c2ccc(NC3(c4ccc(Cl)cc4)CCC3)nn2)c1`, “B (B=1-10 uM)”; as for `O=C(N[C@H]1CCNC1)c1cnc(-c2ccc(NCC3(c4ncccc4F)CCC3)nn2)s1` [N-((3S)pyrrolidin-3-yl){2-[6-({[(3-fluoro(2-pyridyl))cyclobutyl]methyl}ami-no)pyridazin-3-yl](1,3-thiazol-5-yl)}carboxamide], “A (A=<1 uM)”.
As for `CC(C)(O)CNC(=O)c1ccc(F)c(-c2ccc(NC3(c4ccc(F)cc4)CCC3)nn2)c1`, the “Mean AC1.4” value is reported as “B (B=1-10 uM)”.
The same measure, in the same setting: the value for `NC1(c2cnc(-c3ccc(NCC4(c5ncccc5F)CCC4)nn3)s2)COC1` [{6-[5-(3-aminooxetan-3-yl)(1,3-thiazol-2-yl)]pyridazin-3-yl}{[(3-fluoro(2-pyridyl))cyclobutyl]methyl}amine] was “D (D=>20 uM)”.
On the same count and under the same terms, as for `NCc1cnc(-c2ccc(NCC3(c4ncccc4F)CCC3)nn2)s1` [{6-[5-(aminomethyl)(1,3-thiazol-2-yl)]pyridazin-3-yl}{[(3-fluoro(2-pyridyl))cyclobutyl]methyl}amine], the entry is “B (B=1-10 uM)”; as for `CC(=O)c1cnc(-c2ccc(NCC3(c4ncccc4F)CCC3)nn2)s1` [1-{2-[6-({[(3-fluoro-2-pyridyl)cyclobutyl]methyl}ami-no)pyridazin-3-yl]-1,3-thiazol-5-yl}ethan-1-one], “C (C=10-20 uM)”.
Still for that read-out and setting: the value for `NC(=O)c1ccc(F)c(-c2ccc(NC3(c4ncccc4OC(F)F)CCC3)nn2)c1` was “C (C=10-20 uM)”.
As for `CC(C)(C)Nc1ccc(-c2cccc(C(N)=O)c2)nn1` [3-{6-[(tert-butyl)amino]pyridazin-3-yl}benzamide], the “Mean AC1.4” value was “C (C=10-20 uM)”.
`NC(=O)c1cccc(-c2ccc(NC3(c4ccc(F)cn4)CCC3)nn2)c1`: the “Mean AC1.4” value is given as “B (B=1-10 uM)”.
Consider `CC(C)(Nc1ccc(-c2cccc(NS(C)(=O)=O)c2)nn1)c1cccc(OC(F)F)n1` [{3-[6-({1-[6-(difluoromethoxy)(2-pyridyl)]-isopropyl}amino)pyridazin-3-yl]phenyl}(methylsulfonyl)amine], for which the “Mean AC1.4” value is reported as “A (A=<1 uM)”.
Still for that read-out and setting: as for `NC(=O)c1ccc(F)c(-c2ccc(NC3(c4cccc(OC(F)F)n4)CCC3)nn2)c1`, the entry is “A (A=<1 uM)”.
Same read-out and setting: as for `COc1cc(-c2ccc(NCC3(c4ncccc4F)CCC3)nn2)ccc1C(N)=O`, the entry is “B (B=1-10 uM)”.

The test is the same for the next values; noted with them: median AC1.4 reported as class; procedure of Example 39.
For `CS(=O)(=O)N1CC(NC(=O)c2cccc(-c3ccc(NC[C@]4(c5ncccc5F)C[C@H](F)C4)nn3)c2)C1` [{3-[6-({[3-fluoro-1-(3-fluoro(2-pyridyl))cyclobutyl]methyl}ami-no)pyridazin-3-yl]phenyl}-N-[1-(methylsulfonyl)azetidin-3-yl]carboxamide], the “Mean AC1.4” value was “B (B=1-10 uM)”.
On the same count and under the same terms, the value for `Cn1nccc1CNC(=O)c1ccc(NCC2(c3ncccc3F)CCC2)nn1` [[6-({[(3-fluoro(2-pyridyl))cyclobutyl]methyl}ami-no)pyridazin-3-yl]-N-[(1-methylpyrazol-5-yl)methyl]carboxamide] was “D (D=>20 uM)”; that for `Cc1cc(NCC2(c3ncccc3F)CCC2)nnc1-c1ncc(CO)s1` [{2-[6-({[(3-fluoro(2-pyridyl))cyclobutyl]methyl}amino)-4-methylpyridazin-3-yl]-1,3-thiazol-5-yl}methan-1-ol] was “B (B=1-10 uM)”; that for `NC(=O)c1ccc(F)c(-c2ccc(NC[C@]3(c4ncccc4F)C[C@H](F)C3)nn2)c1O` [4-fluoro-3-[6-({[3-fluoro-1-(3-fluoro(2-pyridyl))cyclobutyl]methyl}ami-no)pyridazin-3-yl]-2-hydroxybenzamide] was “A (A=<1 uM)”.
On the same count and under the same terms, as for `NC(=O)c1cc(-c2ccc(NC[C@]3(c4ncccc4F)C[C@H](F)C3)nn2)c(F)cc1O` [4-fluoro-5-[6-({[3-fluoro-1-(3-fluoro(2-pyridyl))cyclobutyl]methyl}ami-no)pyridazin-3-yl]-2-hydroxybenzamide], the entry is “A (A=<1 uM)”.
On the same count and under the same terms, as for `COC(=O)c1csc(NC(=O)c2ccc(NCC3(c4ncccc4F)CCC3)nn2)n1` [methyl 2-{[6-({[(3-fluoro-2-pyridyl)cyclobutyl]methyl}ami-no)pyridazin-3-yl]carbonylamino}-1,3-thiazole-4-carboxylate], the entry is “B (B=1-10 uM)”.
As to `NC(=O)c1cc(N)cc(-c2ccc(NC[C@]3(c4ncccc4F)C[C@H](F)C3)nn2)c1` [5-amino-3-[6-({[3-fluoro-1-(3-fluoro(2-pyridyl))cyclobutyl]methyl}ami-no)pyridazin-3-yl]benzamide], the “Mean AC1.4” value is “B (B=1-10 uM)”.
